According to PubChem BioAssay (NCI):
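How tested: cells in 96-well plates exposed to compound for 48 hours at five concentrations. Definition used: TGI = concentration required for complete inhibition of growth.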

Legend:
Experiment in all cases: DTP human tumour cell line panel, 48 h
[1] = tested on: A549 NSCLC
[2] = tested on: BT-549 breast
[3] = tested on: CAKI-1 renal
[4] = tested on: HOP-92 NSCLC
[5] = tested on: HS 578T breast
[6] = tested on: IGROV1 ovarian
[7] = tested on: KM12 colon
[8] = tested on: MDA-MB-435
[9] = tested on: OVCAR-4 ovarian
[10] = tested on: OVCAR-5 ovarian
[11] = tested on: OVCAR-8 ovarian
[12] = tested on: SF-268 CNS
[13] = tested on: SK-OV-3 ovarian
[14] = tested on: SN12C renal
[15] = tested on: SNB-19 CNS
[16] = tested on: UACC-62 melanoma
[17] = tested on: UO-31 renal
[18] = tested on: OVCAR-3 ovarian

| SMILES | TGI [1] | TGI [2] | TGI [3] | TGI [4] | TGI [5] | TGI [6] | TGI [7] | TGI [8] | TGI [9] | TGI [10] | TGI [11] | TGI [12] | TGI [13] | TGI [14] | TGI [15] | TGI [16] | TGI [17] | TGI [18] |
| --- | --- | --- | --- | --- | --- | --- | --- | --- | --- | --- | --- | --- | --- | --- | --- | --- | --- | --- |
| Brc1ccc(C2=NCSC(c3ccc(Br)cc3)=N2)cc1 | > 100 µM | > 100 µM | > 100 µM | > 100 µM | > 100 µM | > 100 µM | > 100 µM | > 100 µM | > 100 µM | > 100 µM | > 100 µM | > 100 µM | > 100 µM | > 100 µM | > 100 µM | 29.8 µM | 67.2 µM |  |
| CCOC(=O)c1nc2ccccc2nc1Oc1cc(OC)cc(OC)c1 | > 100 µM | > 100 µM |  | > 100 µM | > 100 µM | > 100 µM | > 100 µM | > 100 µM | > 100 µM | > 100 µM | > 100 µM | > 100 µM | > 100 µM | > 100 µM | > 100 µM | > 100 µM | > 100 µM | > 100 µM |
| Cc1nc2ccc(F)cc2c2c1CCS2 | > 100 µM | > 100 µM |  | > 100 µM | > 100 µM | > 100 µM | > 100 µM | > 100 µM | > 100 µM |  | > 100 µM | > 100 µM |  |  | > 100 µM | > 100 µM | > 100 µM | > 100 µM |
| COc1ccc2c(-c3csc(-c4c[nH]c5ccc(Br)cc45)n3)c[nH]c2c1 | > 100 µM | > 100 µM | > 100 µM | > 100 µM | > 100 µM | > 100 µM | > 100 µM | 67.9 µM | > 100 µM | > 100 µM | > 100 µM | 73.4 µM |  | > 100 µM | > 100 µM | > 100 µM | > 100 µM | > 100 µM |
| O=C1c2ccccc2C(=O)N1/N=C1/SC(=Nc2ccccc2)C(=Nc2ccccc2)N1c1ccccc1 | > 100 µM | > 100 µM | > 100 µM | > 100 µM | > 100 µM | > 100 µM | > 100 µM | > 100 µM | > 100 µM | > 100 µM | > 75.9 µM | > 100 µM |  | > 100 µM | > 100 µM | > 100 µM | > 100 µM | > 100 µM |
| CC[C@@H]1/C=C/C=C/C[C@H](C)[C@@H](O)[C@@H](C)C(=O)[C@H](C)[C@@H](O)[C@H](C)C(=O)[C@H](C)[C@@H](O)[C@H](C)/C=C/C(=O)O[C@H]2[C@@H](C)[C@@H](CC1)O[C@@]1(CC[C@@H](C)[C@@H](CC(C)O)O1)[C@@H]2C (some centres undefined) | > 16.9 µM | 24.4 µM | > 25 µM | > 20 µM | > 23.5 µM | 24.9 µM | > 21.5 µM | > 18.3 µM | > 19.3 µM | 15.4 µM | > 25 µM | > 25 µM | > 21.3 µM | 9.9 µM | > 25 µM | 14.5 µM |  | 17.7 µM |
| CCCN(CCC)C(=S)Sc1nc(C)nc(N2CCN(c3nc(C)nc(SC(=S)N(CCC)CCC)c3[N+](=O)[O-])CC2)c1[N+](=O)[O-] | > 84.5 µM | 26.9 µM | 34.4 µM | 22.4 µM | > 100 µM | 41 µM | 33.4 µM | > 65.9 µM | 76.5 µM | 45.4 µM | > 100 µM | 98.5 µM | > 100 µM | > 39.8 µM | > 88.3 µM | 60.3 µM | 37.4 µM |  |
| COC(=O)C(=O)C(C(=O)C(=O)Nc1ccc(Cl)c(Cl)c1)c1nc2ccc(C(=O)c3ccccc3)cc2[nH]c1=O (centres undefined) | > 100 µM | > 100 µM | > 100 µM | > 100 µM | > 100 µM | > 100 µM | > 100 µM | > 100 µM |  | > 100 µM | > 100 µM | > 100 µM | > 100 µM | > 100 µM | > 100 µM | > 100 µM | > 100 µM | > 100 µM |
| C[N+]1(C)C2CC(OC(=O)C(CO)c3ccccc3)CC1C1OC12 (centres undefined) | > 100 µM | > 100 µM | > 100 µM |  | > 100 µM | > 100 µM | > 100 µM | > 100 µM | > 100 µM | > 100 µM | > 100 µM |  | > 100 µM | > 100 µM | > 100 µM | > 100 µM | > 100 µM | > 100 µM |
| COC(=O)C(Cc1ccccc1)NC(=O)CSc1nnc(COc2ccc(Cl)cc2)n1-c1ccccc1 (centres undefined) | > 100 µM | 69.6 µM |  | 76.7 µM | > 100 µM | > 100 µM | > 100 µM | 45.6 µM | 64.9 µM | 54.6 µM |  | > 100 µM | 63 µM | 48.9 µM | > 100 µM | 27.9 µM | 3.34 µM |  |
